Measured values taken from the NIST ThermoML archive (doi:10.1016/j.jct.2012.04.025).
Numbers after ± are expanded uncertainties.

Experiment: molar heat capacity at constant pressure
Details: 298.15 K; 101.33 kPa; Liquid; High-precision drop calorimeter

CCCC[n+]1ccn(C)c1.O=S(=O)([N-]S(=O)(=O)C(F)(F)F)C(F)(F)F
molar heat capacity at constant pressure: 565.9 ± 5 J/K/mol

CCCCCC[n+]1ccn(C)c1.O=S(=O)([N-]S(=O)(=O)C(F)(F)F)C(F)(F)F
molar heat capacity at constant pressure: 629.4 ± 6 J/K/mol

CCCn1cc[n+](C)c1.O=S(=O)([N-]S(=O)(=O)C(F)(F)F)C(F)(F)F
molar heat capacity at constant pressure: 534.9 ± 5 J/K/mol

CCCCCCCCCCCCn1cc[n+](C)c1.O=S(=O)([N-]S(=O)(=O)C(F)(F)F)C(F)(F)F
molar heat capacity at constant pressure: 820.2 ± 8 J/K/mol

CCn1cc[n+](C)c1.O=S(=O)([N-]S(=O)(=O)C(F)(F)F)C(F)(F)F
molar heat capacity at constant pressure: 504.8 ± 5 J/K/mol

CCCCCCCCn1cc[n+](C)c1.O=S(=O)([N-]S(=O)(=O)C(F)(F)F)C(F)(F)F
molar heat capacity at constant pressure: 690.2 ± 7 J/K/mol

CCCCCCCn1cc[n+](C)c1.O=S(=O)([N-]S(=O)(=O)C(F)(F)F)C(F)(F)F
molar heat capacity at constant pressure: 659.2 ± 6 J/K/mol

CCCCCCCCCCn1cc[n+](C)c1.O=S(=O)([N-]S(=O)(=O)C(F)(F)F)C(F)(F)F
molar heat capacity at constant pressure: 754.5 ± 7 J/K/mol

CCCCCn1cc[n+](C)c1.O=S(=O)([N-]S(=O)(=O)C(F)(F)F)C(F)(F)F
molar heat capacity at constant pressure: 595.6 ± 6 J/K/mol
